The target of data set [1] is T1, p38 MAPKα isoform (MAPK14: Invitrogen) (Homo sapiens, UniProt Q16539).
T1 construct: purchased Invitrogen
Description: p38 MAPKα enzyme inhibition assay (FRET, Z-LYTE, via MAPKAP-K2 activation). The format is biochemical. Conditions: 2 hr pre-incubation, ATP 10.0 μM; read-out: Enzyme Inhibition IC50 p38α.
Description: The enzyme inhibitory activities of compounds disclosed herein were determined by fluorescence resonance energy transfer (FRET) using synthetic peptides labelled with both donor and acceptor fluorophores (Z-LYTE, Invitrogen Ltd., Paisley, UK). Recombinant, phosphorylated p38 MAPKγ (MAPK12:Invitrogen) was diluted in HEPES buffer, mixed with the test compound at the desired final concentrations and incubated for 2 hr at RT. The FRET peptide (2 μM) and ATP (100 μM) were added to the enzyme/compound mixture and incubated for 1 hr. Development reagent (protease) was added for 1 hr prior to detection in a fluorescence microplate reader (Varioskan® Flash, ThermoFisher Scientific). The site-specific protease cleaves non-phosphorylated peptide only and eliminates the FRET signal. Phosphorylation levels of each reaction were calculated using the ratio of coumarin emission (donor) over fluorescein emission (acceptor) for which high ratios indicate high phosphorylation and low ratios indicate low phosphorylation levels.
For the p38 MAPKα isoform (MAPK14: Invitrogen), enzyme activity was evaluated indirectly by determining the level of activation/phosphorylation of the down-stream molecule, MAPKAP-K2. The p38 MAPKα protein was mixed with the test compound for 2 hr at RT. […] Development reagent was then added and the mixture incubated for 1 hr before detection by fluorescence completed the assay protocol.

Data set [2] relates to LPS-induced TNFα release in THP-1 cells. Description: LPS-induced TNFα release in THP-1 cells. Type of data set: cell-based. As to conditions: Homo sapiens, 3 μg/mL LPS, 4 hr. The essentials: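 Human monocytic cells were stimulated with 3 μg/mL E. coli LPS for 4 hr. Supernatant TNFα was measured by sandwich ELISA. Inhibition was taken relative to vehicle control, and IC50 derived from the concentration-response curve.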

The subject of data set [3] is Differentiated U937 cells. The data set is described as follows: MTT assay: cell viability on exposure to test compounds. Type of data set: cell-based, human. Conditions: percentage loss of cell viability vs vehicle; for MTT Assay (Viability) 4 h d-U937: 5% FCS; for MTT Assay (Viability) 24 h d-U937: 10% FCS. The essentials:
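Differentiated U937 cells were pre-incubated with compound for either 4 h in 5% FCS or 24 h in 10% FCS, then given MTT for 1 h. Formazan was dissolved in DMSO and read at 550 nm. Viability loss is expressed as % versus 0.5% DMSO vehicle, so an apparent gain appears as a negative value.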
For orientation: Tetrazolium assays rely on reduction of a dye to a coloured formazan, in cell work by metabolically active cells.

Data set [4] relates to LPS-induced TNFα release in d-U937 cells. Description: LPS-induced TNFα release in d-U937 cells. The format is cell-based. Conditions: Homo sapiens, dU937, 4 h; read-out: LPS/TNFα REC50 d-U937. A digest of the protocol:
(§1)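 U937 cells differentiated with PMA (100 ng/mL, 48–72 hr), pre-incubated with compound 2 hr, then stimulated with 0.1 μg/mL E. coli O111:B4 LPS for 4 hr. Supernatant TNFα and IL-8 measured by sandwich ELISA; REC50 (TNFα) and IC50 (IL-8 inhibition vs vehicle) taken from concentration-response curves.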

For data set [5], the system named is LPS-induced IL-8 release in d-U937 cells. The data set is described as follows: LPS-induced IL-8 release in d-U937 cells. The format is cell-based. As to conditions: Homo sapiens, dU937, 0.1 μg/mL LPS, 4 hr. A digest of the protocol:
as §1

Data set [6] has as its target T2, Recombinant, phosphorylated p38 MAPKγ (MAPK12:Invitrogen) (Homo sapiens, UniProt P53778).
T2 construct: purchased Invitrogen
T2 sequence (P53778 1-367): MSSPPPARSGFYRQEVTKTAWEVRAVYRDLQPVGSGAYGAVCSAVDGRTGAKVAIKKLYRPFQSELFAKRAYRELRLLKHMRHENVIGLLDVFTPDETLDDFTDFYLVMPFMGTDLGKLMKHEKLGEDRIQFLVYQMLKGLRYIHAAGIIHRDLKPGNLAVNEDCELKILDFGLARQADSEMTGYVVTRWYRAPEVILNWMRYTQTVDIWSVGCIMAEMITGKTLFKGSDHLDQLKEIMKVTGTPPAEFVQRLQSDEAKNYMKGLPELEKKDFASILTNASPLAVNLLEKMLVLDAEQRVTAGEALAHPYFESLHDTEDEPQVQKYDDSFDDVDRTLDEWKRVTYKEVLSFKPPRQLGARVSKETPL
The data set is described as follows: p38 MAPKγ enzyme inhibition assay (FRET, Z-LYTE). Conditions: 2 hr pre-incubation, ATP 100 μM; read-out: Enzyme Inhibition IC50 p38γ. The format is biochemical.

Data set [7] deals with Poly I:C-induced ICAM-1 expression in BEAS2B cells. Description: Poly I:C-induced ICAM-1 induction in BEAS2B cells. As to conditions: Homo sapiens, BEAS-2B, poly I:C 1 μg/mL, 18 hr, read-out: PolyI:C/ICAM1 IC50 BEAS2B. The format is cell-based. A digest of the protocol: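 Human bronchial epithelial BEAS2B cells were pre-incubated with compound for 2 h, then transfected with poly I:C at 1 μg/mL. Surface ICAM-1 was measured 18 h later by cell-based ELISA (OD450–655), normalised to crystal-violet cell number (OD595). IC50 was taken from the concentration–response curve against vehicle.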

Each structure is given as a SMILES string. Marks after values point to notes of the source that are not given here.

T1 sequence (Q16539 whole entry, canonical isoform): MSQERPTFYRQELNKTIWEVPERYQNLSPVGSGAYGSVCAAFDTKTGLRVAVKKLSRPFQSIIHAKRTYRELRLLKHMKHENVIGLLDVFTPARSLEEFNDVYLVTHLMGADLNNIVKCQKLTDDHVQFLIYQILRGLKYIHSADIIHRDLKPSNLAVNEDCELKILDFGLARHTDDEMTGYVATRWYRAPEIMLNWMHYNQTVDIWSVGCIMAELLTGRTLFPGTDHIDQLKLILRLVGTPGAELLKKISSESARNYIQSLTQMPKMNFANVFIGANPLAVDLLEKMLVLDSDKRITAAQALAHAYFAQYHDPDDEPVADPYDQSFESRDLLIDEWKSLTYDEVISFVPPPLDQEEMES

For `COCC(=O)Nc1cc(Oc2ccc(NC(=O)Nc3cc(C4(C)CCOCC4)nn3-c3ccc(C)cc3)c3ccccc23)ccn1` [Example 20, 2-Methoxy-N-(4-(4-(3-(3-(4-methyltetrahydro-2H-pyran-4-yl)-1-p-tolyl-1H-pyrazol-5-yl)ureido)naphthalen-1-yloxy)pyridin-2-yl)acetamide], the IC50 in data set [1] was found to be 0.0036 µM; in data set [2], 0.0009 µM; in data set [5], 0.0006 µM; in data set [6], 0.143 µM; in data set [7], 0.0044 µM. Further, in data set [3] (1 μg/mL), the “MTT Assay (Viability) 4 h d-U937” value is on record as −32.6%. Moreover, in data set [3] (1 μg/mL), the “MTT Assay (Viability) 24 h d-U937” value is −9.0%. The EC50 in data set [4] turned out to be 0.0002 µM.
As to `COCC(=O)Nc1cc(Sc2ccc(NC(=O)Nc3cc(C(C)(C)C)nn3-c3ccc(C)cc3)c3ccccc23)ccn1` [Example 21, N-(4-(4-(3-(3-tert-Butyl-1-p-tolyl-1H-pyrazol-5-yl)ureido)naphthalen-1-ylthio)pyridin-2-yl)-2-methoxyacetamide], the IC50 in data set [1] came to 0.026 µM; in data set [2], 0.0025 µM; in data set [5] it was 0.0303 µM; in data set [6], 0.341 µM; in data set [7], 0.0063 µM. Further, in data set [3] (1 μg/mL), the “MTT Assay (Viability) 4 h d-U937” value came to 2.7%. Further, in data set [3] (1 μg/mL), the “MTT Assay (Viability) 24 h d-U937” value amounted to 5.3%. Besides, in data set [4], the EC50 stood at 0.0066 µM.
As to `COCCOCC(=O)Nc1cc(C(=O)c2ccc(NC(=O)Nc3cc(C(C)(C)C)nn3-c3ccc(C)cc3)c3ccccc23)ccn1` [Example 22, N-(4-(4-(3-(3-(tert-Butyl)-1-(p-tolyl)-1H-pyrazol-5-yl)ureido)-1-naphthoyl)pyridin-2-yl)-2-(2-methoxyethoxy)acetamide], the IC50 in data set [1] stood at 0.014 µM; in data set [2], 0.0536 µM; in data set [5], 0.651 µM; in data set [6], 7.03 µM; in data set [7], 0.572 µM. The “MTT Assay (Viability) 4 h d-U937” value in data set [3] (10 μg/mL) is given as 21.1^b %. Further, the “MTT Assay (Viability) 24 h d-U937” value in data set [3] (10 μg/mL) is recorded as 80.8^b %. Also, in data set [4], the EC50 was found to be 0.003 µM.
With `CCNC(=O)Nc1cc(Cc2ccc(NC(=O)Nc3cc(C(C)(C)C)nn3-c3ccc(C)cc3)c3ccccc23)ccn1` [Example 23, 1-(3-(tert-Butyl)-1-(p-tolyl)-1H-pyrazol-5-yl)-3-(4-((2-(3-ethylureido)pyridin-4-yl)methyl)naphthalen-1-yl)urea], the IC50 in data set [1] came out at 0.0203 µM; in data set [2], 0.0124 µM; in data set [5], 0.0214 µM; in data set [6] it was 3.01 µM; in data set [7], 0.0203 µM. The “MTT Assay (Viability) 4 h d-U937” value in data set [3] (10 μg/mL) was 15.2^b %. Further, in data set [3] (10 μg/mL), the “MTT Assay (Viability) 24 h d-U937” value was −1.7^b %. Also, the EC50 in data set [4] came out at 0.0034 µM.
Consider `COCC(=O)Nc1cc(Oc2ccc(NC(=O)Nc3cc(C4CC4)nn3-c3ccc(C)cc3)c3ccccc23)ccn1` [Example 24, N-(4-((4-(3-(3-cyclopropyl-1-p-tolyl-1H-pyrazol-5-yl)ureido)naphthalen-1-yl)oxy)pyridin-2-yl)-2-methoxyacetamide], for which the IC50 in data set [1] came out at 0.0015 µM; in data set [2], 0.0118 µM; in data set [5] it was 0.0356 µM; in data set [6], 1.34 µM; in data set [7], 0.11 µM. In data set [3] (1 μg/mL), the “MTT Assay (Viability) 4 h d-U937” value is listed as −10.8%. The “MTT Assay (Viability) 24 h d-U937” value in data set [3] (1 μg/mL) was −7.4%. Further, in data set [4], the EC50 was 0.0033 µM.
Consider `COCC(=O)Nc1cc(Oc2ccc(NC(=O)Nc3cc(C4(C)CCCCC4)nn3-c3ccc(C)cc3)c3ccccc23)ccn1` [Example 26, 2-methoxy-N-(4-(4-(3-(3-(1-methylcyclohexyl)-1-p-tolyl-1H-pyrazol-5-yl)ureido)naphthalen-1-yloxy)pyridin-2-yl)acetamide], for which the IC50 was 0.0482 µM in data set [1]; 0.0035 µM in data set [2]; 0.001 µM in data set [5]; 0.779 µM in data set [6]; 0.0044 µM in data set [7]. Moreover, in data set [3] (1 μg/mL), the “MTT Assay (Viability) 4 h d-U937” value is −27.9%. Moreover, the “MTT Assay (Viability) 24 h d-U937” value in data set [3] (1 μg/mL) is −33.2%. Moreover, in data set [4], the EC50 was 0.0004 µM.
As to `COCC(=O)Nc1cc(Oc2ccc(NC(=O)Nc3cc(C45CC6CC(CC(C6)C4)C5)nn3-c3ccc(C)cc3)c3ccccc23)ccn1` [Example 27, N-(4-(4-(3-(3-(adamantan-1-yl)-1-p-tolyl-1H-pyrazol-5-yl)ureido)naphthalen-1-yloxy)pyridin-2-yl)-2-methoxyacetamide], the IC50 was determined as 0.0743 µM in data set [1]; 0.0152 µM in data set [2]; 3.52 µM in data set [5]; 1.97 µM in data set [6]; 0.284 µM in data set [7]. For the same molecule, the “MTT Assay (Viability) 4 h d-U937” value in data set [3] (1 μg/mL) was −4.6%. In addition, the “MTT Assay (Viability) 24 h d-U937” value in data set [3] (1 μg/mL) is recorded as −23.9%. Moreover, in data set [4], the EC50 turned out to be 0.0188 µM.
For `COCC(=O)Nc1cc(Oc2ccc(NC(=O)Nc3cc(C4CCOCC4)nn3-c3ccc(C)cc3)c3ccccc23)ccn1` [Example 28, 2-methoxy-N-(4-(4-(3-(3-(tetrahydro-2H-pyran-4-yl)-1-p-tolyl-1H-pyrazol-5-yl)ureido)naphthalen-1-yloxy)pyridin-2-yl)acetamide], the IC50 in data set [1] was 0.0014 µM; in data set [2] it was 0.0413 µM; in data set [5], 0.0627 µM; in data set [6], 9.3 µM; in data set [7] it was 1.58 µM. In addition, the “MTT Assay (Viability) 4 h d-U937” value in data set [3] (1 μg/mL) is on record as −23.7%. For the same molecule, the “MTT Assay (Viability) 24 h d-U937” value in data set [3] (1 μg/mL) is recorded as −34.5%. Besides, in data set [4], the EC50 came to 0.0071 µM.
As to `COCC(=O)Nc1cc(Oc2ccc(NC(=O)Nc3cc(C(F)(F)F)nn3-c3ccc(C)cc3)c3ccccc23)ccn1` [Example 29, 2-methoxy-N-(4-(4-(3-(1-p-tolyl-3-(trifluoromethyl)-1H-pyrazol-5-yl)ureido)naphthalen-1-yloxy)pyridin-2-yl)acetamide], the IC50 in data set [1] was 0.0077 µM; in data set [2], 0.138 µM; in data set [5] it was over 1.69 µM; in data set [6], 14.5 µM; in data set [7], 0.412 µM. In addition, the “MTT Assay (Viability) 4 h d-U937” value in data set [3] (1 μg/mL) was determined as 0.8%. Moreover, the “MTT Assay (Viability) 24 h d-U937” value in data set [3] (1 μg/mL) is recorded as −5.7%. Also, the EC50 in data set [4] came to 3.3 µM.
Regarding `COCC(=O)Nc1cc(Oc2ccc(NC(=O)Nc3cc(C(F)(F)C(F)(F)F)nn3-c3ccc(C)cc3)c3ccccc23)ccn1` [Example 30, 2-methoxy-N-(4-(4-(3-(3-(perfluoroethyl)-1-p-tolyl-1H-pyrazol-5-yl)ureido)naphthalen-1-yloxy)pyridin-2-yl)acetamide], the IC50 in data set [1] was 0.0101 µM; in data set [2] it was 0.0102 µM; in data set [5] it was 1.91 µM; in data set [6], over 15.6 µM; in data set [7] it was 1.49 µM. The “MTT Assay (Viability) 4 h d-U937” value in data set [3] (1 μg/mL) is listed as −6.3%. Further, in data set [3] (1 μg/mL), the “MTT Assay (Viability) 24 h d-U937” value was −46.1%. Further, in data set [4], the EC50 came out at 0.108 µM.
On to `CNS(=O)(=O)Cc1ccc(-n2nc(C(C)(C)C)cc2NC(=O)Nc2ccc(Oc3ccnc(NC(=O)COC)c3)c3ccccc23)cc1` [Example 31, N-(4-(4-(3-(3-tert-butyl-1-(4-((N-methylsulfamoyl)methyl)phenyl)-1H-pyrazol-5-yl)ureido)naphthalen-1-yloxy)pyridin-2-yl)-2-methoxyacetamide], for which the IC50 in data set [1] is 0.0171 µM; in data set [2], 0.001 µM; in data set [5], 0.0196 µM; in data set [6], 0.0772 µM; in data set [7], over 0.149 µM. The “MTT Assay (Viability) 4 h d-U937” value in data set [3] (1 μg/mL) was determined as 1.7%. Besides, the “MTT Assay (Viability) 24 h d-U937” value in data set [3] (1 μg/mL) was found to be 50.1%. In addition, in data set [4], the EC50 was determined as 0.0008 µM.

These data come from patent US9024041B2, “P38 MAP kinase inhibitors” (Respivert Ltd., priority 2010, dated 2015).
